Measurements published in patent publication US12391646B2, “Using adiponectin receptor agonists to treat inflammation and bone diseases in diabetes” (Trustees of Tufts College, priority 2020, dated 2025).

Tested on: RAW 264.7 cells in high glucose medium
Test: Osteoclastogenesis and autophagy of RANKL-treated RAW 264.7 cells in high glucose medium
Assay type: cell-based
Details: for RANKL-induced mRNA expression of Cathepsin K and TRAP: high glucose 25 mM, AdipoRon 20 μM; for LC3 mRNA, LC3II protein and LC3 puncta: high glucose medium with RANKL
Experimental: FIG. 20 RAW 264.7 cells were treated with RANKL (100 ng/ml) with or without AdipoRon ([…]) or AdipoAI (5 μM) in low (5 mmol/l) glucose, 20 mmol/l D-mannitol or high (25 mmol/l) glucose medium. qRT-PCR analysis of cathepsin K (A), TRAP (B) and microtubule associated protein 1 light chain 3 (LC3) (C), and mRNA expression were calculated (n≥3). (D) Western blot analysis of LC3A/B protein levels normalized to β-actin. (E) The mean of protein/β-actin ratios normalized to 1.0 (RANKL-AdipoRon-AdipoAI-H group) quantified by densitometry. (F) Autophagosome images obtained with laser confocal microscopy after the RAW 264.7 cells were transfected with a GFP-LC3 plasmid and treated with RANKL and AdipoRon or AdipoAI (scale bar=50 μm). Data are shown as mean±SD. *, P<0.05. **P<0.01. ***P<0.001.
FIG. 21 Autophagy inhibitor reverses AdipoAI-inhibited osteoclastogenesis in high glucose medium. RAW 264.7 cells were treated with RANKL (100 ng/ml) in 2 days and with or without AdipoAI (5 μM) for 24 hours followed by 3-methyladenine (3-MA, 2.5 mM) treatment for another 24 hours in high glucose medium. qRT-PCR analysis of cathepsin K (A), TRAP (B) and LC3 (C) mRNA expression were calculated (n≥3). (D) Western blot analysis of LC3A/B protein levels normalized to β-actin. (E) The mean of protein/β-actin ratios normalized to 1.0 (3-MA-, RANKL-, AdipoAI-group) quantified by densitometry. Data are shown as mean±SD. *, P<0.05. **P<0.01. ***P<0.001.
FIG. 22 AdipoAI-induced autophagy of osteoclasts in high glucose medium via AKT1/mTOR signaling pathway. RAW 264.7 cells were induced with RANKL for 2 days and then treated with or without (5 μM) additional 24 hours after serum starvation for 4 hours. Then, the cells were treated with RANKL, AdipoAI or SC79 (5 μM), an AKT activator, for another 24 hours in high glucose medium. qRT-PCR analysis of mRNA expression of cathepsin K (A), TRAP (B) and LC3 (C) were calculated (n≥3). (D) Representative images show the protein expression levels of AKT, p-AKT, AKT1, p-AKT1, mTOR, p-mTOR, and LC3A/B in osteoclasts. Quantitative analysis of bands is shown in (E-K) (n≥3). Data are shown as mean±SD. *, P<0.05. **P<0.01. ***P<0.001. R: RANKL. A, AI: AdipoAI. SC5: SC79 (5 μM).
RAW 264.7 cells (ATCC, Manassas, VA, USA) were cultured and passaged in DMEM supplemented with 10% (v/v) FBS (Invitrogen, Grand Island, NY, USA) and 1% Penicillin-Streptomycin (Gibco, Gaithersburg, MD, USA). For the induction of osteoclastogenesis, RAW 264.7 cells were cultured 24 in α-MEM supplemented with 10% FBS and 1% Penicillin-Streptomycin in the presence of 100 ng/ml RANKL (Peprotech, Rocky Hill, NJ, USA) for 2 days, and subsequently treated or not with AdipoRon or AdipoAI for another 2 days changing cell culture medium every 2 days. After a total of […] of culture, morphologic examination was performed, as was mRNA and protein expression. To simulate high glucose environment in vitro, α-MEM was supplemented with D-glucose to 25 mmol/l (high glucose) or 5 mmol/l (physiological glucose). 20 mmol/l D-mannitol served as an osmotic control.
Total RNA was isolated from cell cultures and gingival soft tissues using TriZol reagent (Life Technologies, Carlsbad, CA, USA) according to the manufacturer's instructions^24. Reverse transcription was performed using the PrimeScript RT Master Mix (Takara Bio, Otsu, Japan) and real-time-qPCR analyses were performed using SYBR-Green Real-Time PCR Master Mix (Takara Bio, Otsu, Japan) as described earlier^27.
Total cellular extracts were prepared using RIPA Lysis and Extraction Buffer containing three Protease Inhibitors (Santa Cruz, Dallas, TX, USA). Western blot analyses were performed as previously described 24. Antibodies for β-actin (1:2000) and GAPDH (1:5000), LC3A/B (1:1000), AKT1 (1:1000), p-AKT1 (1:1000), AKT (1:1000), p-AKT (1:1000), mTOR (1:1000), p-mTOR (1:1000) were purchased from Abcam and Cell Signaling Technology, respectively. SC79, an AKT activator was purchased from Sigma Aldrich. […]

[1] = AdipoAI 5 μM, RANKL, high glucose medium

Compound	RANKL-induced mRNA expression of Cathepsin K and TRAP (AdipoAI 5 μM)	LC3 mRNA, LC3II protein and LC3 puncta	expression of AKT [1]	expression of LC3II [1]	reduction of phosphorylation of AKT [1] [%]	reduction of phosphorylation of AKT1 [1] [%]	reduction of phosphorylation of mTOR [1] [%]
O=C(COc1ccc(C(=O)c2ccccc2)cc1)NC1CCN(Cc2ccccc2)CC1 [AdipoRon, reference compound]	decreased the RANKL-induced mRNA expression of osteoclastogenesis markers	increased the mRNA expression of LC3, protein expression of LC3II and LC3 puncta					
COc1ccc(CN2CCC(NC(=O)COc3ccc(C(=O)c4ccc(Cl)cc4)cc3)CC2)cc1 [Compound 3]	decreased the RANKL-induced mRNA expression of osteoclastogenesis markers	increased the mRNA expression of LC3, protein expression of LC3II and LC3 puncta	inhibits the expression of AKT	promotes the expression of LC3II	21	40	25
